Assay results: article PMC4411102 (PLoS ONE, 2015)
No end group written: not given here.

Assays:
CXCR4 = settings: cited from earlier work
CCR5 = test system: CCR5; set-up: method as in PMID 20721836; settings: cited from earlier work
vaginal mucosa = settings: cited from earlier work
Text: Its activity is directed more towards the virus than to host cells. Some of the known anti-HIV peptides such as defensins have better selectivity index, but many of such peptides/molecules act as a double edged-sword. These peptides inhibit HIV infection but also lead to inflammation and/or potentiate pathogen invasion.

HIV = settings: cited from earlier work
Text: HIV-1 infection can be targeted at various stages, for example, viral entry, viral replication or assembly of viral components. HIV entry into the host cells is facilitated by binding of viral envelope glycoprotein (gp120) to host CD4 receptor [3, 4]. CD4-gp120 interaction initiates a cascade of events that stimulates gp41 to promote viral and host membrane fusion. Inhibition of gp120-CD4 interaction or virus-host cell fusion thus appears to be an attractive strategy to prevent HIV-1 infection. Towards this, significant advances have been made. […] Moreover, some of the AMPs cause adverse effects on vaginal commensals like lactobacilli which are required to maintain low pH in vaginal mucosa.

HIV-host cell fusion = settings: cited from earlier work
gp120 of HIV-1 IIIB = experiment: Binding ELISA, gp120 of HIV-1 IIIB; settings: for Binding of designed peptides to gp120: peptide-coated plate, 500ng gp120, 2 hrs at 37°C, 492nm (S1 Fig)
Method: (§1) After blocking with 3% bovine serum albumin (BSA) in PBS for 30 min, 100 μl of gp120 (100ng/well) in PBS-0.05% BSA was added to each well and incubated for 2 hrs at 37°C. After three washings with PBS-Tween-20 (PBS-T), cells were incubated with anti-gp120 antibody at 1:200 dilution and then with horse radish peroxidase-(HRP) conjugated secondary goat anti-human antibody (1:10000 dilution) for 1 hr at 37°C. This was followed by incubation with O-phenylenediamine for 20 min. The absorbance was measured at 492 nm on a microplate ELISA reader (ELx-800, Bio-Tek Instruments, USA). Background values obtained in the wells without HbAHP-25 were subtracted from the absorbance values from wells having all other reagents.
Supplementary file pone.0124839.s001.tif: S1 Fig Binding of designed peptides to gp120. Peptides that were designed in silico were evaluated for their binding to gp120 of HIV-1 IIIB. Peptides were coated on 96 well microtiter plate for 16 hrs and then incubated with 500ng of gp120 for 2 hrs at 37°C. This was followed by addition of anti-gp120 antibody, and absorbance was read at 492nm. Background absorbance was subtracted from the wells where peptides were not coated. […] (TIF) Click here for additional data file.

gp120 of HIV-1 BaL = experiment: Binding ELISA, gp120 of HIV-1 BaL; settings: 2.2–71.40 μM coated, gp120 100ng/well
Method: as §1

HIV-1 IIIB and ADA5 = experiment: Time-of-addition assay in TZM-bl cells; settings: 71.40 μM
Method: Luciferase activity was measured at 48 hrs post treatment using Luminometer (ELx-800, Bio-Tek Instruments, USA). VRC01 (0.1 μM) antibody was used as a positive control.

HIV-1 IIIB = experiment: Anti-HIV activity, p24 antigen assay in H9 cells; format: cell-based; set-up: key to Anti-HIV activity: +: moderate; ++: significant; NA: No activity; settings: for Anti-HIV activity (in words): 0.1 MoI HIV-1 IIIB pre-incubated with peptide, H9 cells, p24 on day 4
Method: Supplementary file pone.0124839.s002.tif: S2 Fig Anti-HIV activity of 3 designed peptides. Anti HIV activity of three peptides was determined using H9 cells. H9 cells were infected for 4 hrs with 0.1 MoI of HIV-1 IIIB pre-incubated with various concentrations of peptides. Peptides were added post infection as well. Supernatant was collected on day 4 post infection, and p24 antigen assay was performed. […] (TIF) Click here for additional data file.
Supplementary file pone.0124839.s003.tif: S3 Fig Anti-HIV activity of peptide analogues of peptide 1. After modifying the peptide 1, we performed anti-HIV assay as earlier. HIV-1 IIIB was pre-incubated with peptide analogues for 1 hr and then added to H9 cells for 4 hrs. Levels of p24 levels were determined on day 4 post infection. […] (TIF) Click here for additional data file.

c1cc(CN2CCCNCCNCCCNCC2)ccc1CN1CCCNCCNCCCNCC1 [AMD3100]
CXCR4 antagonism (CXCR4): CXCR4 antagonists

CCCCOCCOc1ccc(-c2ccc3c(c2)/C=C(/C(=O)Nc2ccc([S@@+]([O-])Cc4cncn4CCC)cc2)CCCN3CC(C)C)cc1 [Cencriviroc]
CCR5 antagonism (CCR5): CCR5 antagonists

CCCCCCCCCc1ccc(OCCOCCOCCOCCOCCOCCOCCOCCOCCO)cc1 [Nonoxynol-9]
Effects on vaginal mucosa (vaginal mucosa): caused detrimental effects on vaginal mucosa

Enfuvirtide
Alleviation of HIV infections (HIV): alleviate HIV infections effectively
Resistance on long term treatment (HIV; mutations in gp41): leads to resistance
Effect on HIV-host cell fusion (HIV-host cell fusion): interfere with the HIV-host cell fusion

PLVKDVLRSLCNHAHKCVTLALLRH [Scrambled peptide(sP)]
Binding to recombinant gp120 of HIV-1 IIIB (gp120 of HIV-1 IIIB; ELISA, 2.2–71.40 μM coated, gp120 100ng/well): did not bind
Binding to recombinant gp120 of HIV-1 BaL (gp120 of HIV-1 BaL): did not bind
Inhibition (scrambled control) (HIV-1 IIIB and ADA5): no inhibition

SAQVKGHGKKVADALTNAVAHVDDMPNAL [Peptide-2, Hb-α subunit derived 29-residue peptide (52–80)]
Anti-HIV activity (in words) (HIV-1 IIIB; listed as peptide 2): failed to demonstrate any activity
Anti-HIV activity (in words) (HIV-1 IIIB; listed as peptide-2): did not show any anti-HIV-1 activity
Binding of designed peptides to gp120 (gp120 of HIV-1 IIIB): failed to show any binding

VKGHGKKVADALTNAVAHVDDMPNALSAL [Peptide-3, Hb-α subunit derived 29-residue peptide (55–83)]
Anti-HIV activity (in words) (HIV-1 IIIB): showed anti-HIV activity
Anti-HIV activity (HIV-1 IIIB; class symbols of Table 1, HIV-1 IIIB in H9 cells, p24 (S2, S3 Fig)): +
Binding of designed peptides to gp120 (gp120 of HIV-1 IIIB): showed binding to gp120 of HIV-1 IIIB

human defensin-6: antimicrobial peptide, printed as human defensin-5 and 6 (AFTCHCRRSCYSTEYSYGTCTVMGINHRFCCL; ends and bridges not checked; cysteine pairing not given here; UniProt Q01524 69-100, looked up)
Effect on HIV infection (HIV): exacerbate HIV infection

indolicidin: natural antimicrobial peptide (ILPWKWPWWPWRR; not fully specified (C-terminus); ends and bridges not checked; UniProt P33046 131-143, looked up)
Anti-HIV activity (HIV): reported to have anti-HIV activity
